Measured values reported in patent publication US11116741B2, “Method for the treatment of valvular heart disease comprising administering a composition comprising sarpogrelate” (CEVA SANTE ANIMALE, priority 2017, dated 2021).
Entries after “also recorded” stand apart in the source; their conditions may differ.

Key:
[1] = Body weight, food intake, water intake, systolic blood pressure and heart rate in the NdF mouse model; type: in vivo, mice; conditions: for Water intake: estimation of the water intake per cage per day: g = ml
Procedure: (§1) Before the start of the experiment, baseline systolic blood pressure, heart rate and body weight were measured. […] The dose of sarpogrelate administered was 2 mg/kg/day. The experiment started two days after the subcutaneous implantation so as to allow the activation of the mini-osmotic pump. Systolic blood pressure, heart rate and body weight were measured each week until the end of the experiment. At the term (day 28), urinary samples were collected from mice to determine 5-hydroxy-indol acetic acid concentration (5-HIAA which is a serotonin metabolite).

[2] = Blood 5-HT and urine 5-HIAA concentrations in mice given NdF by mini-osmotic pump; type: in vivo
Procedure: (§2) These lesions appear as endothelial cells recruitment and migration into the valvular leaflets with intense production of extracellular matrix.
as §1
Then, mice were euthanized using an injection of a […] dose of pentobarbital followed by an intra-cardiac blood puncture and whole blood serotonin concentration was determined.
All plasma was collected and analyzed in a single run.

mitral valve leaflet = assay: Histological morphometric analysis of mitral valve (thickness, cellularity) in NdF induced mitral remodeling; type: in vivo, mice
Procedure: as §2, §1
For morphometric analysis, one sagittal section (5 μm in thickness) is obtained after paraffin embedding and stained with hematoxylin and eosin stain. In each section, mitral valves are examined and cellularization counted. Extreme care is taken in sectioning the heart so that the valves are mainly cut transversely (with the attachment sides of the leaflets visible on both ends of the valve).
Valve histological morphometric analysis is performed visually using a microscope (Leica DM750®, Germany) with a 40× calibrated objective connected to a camera and a data acquisition and analysis system (Leica/Microsystems®LAS V4.8) by a single operator. Practically, on each section, the operator applies a large square of 250 μm×250 μm divided in 100 equal parts of 25 μm×25 μm each. For the quantification, the whole mitral valve leaflet section is divided in three equal parts. The proximal region is the one nearest the base cusp, followed by the medial and the distal regions. The proximal, medial and distal parts thicknesses are measured on three distinct sites in each region. The mean result is expressed in μm, in table 8.
The density of endothelial cells is evaluated in proximal, medial and distal regions. The numbers of cells is determined on a leaflet length of 25×4 μm (100 μm2). The result (mean) is expressed in number of cells per 100 μm2.

[3] = target: 5-HT2A receptor compared to the 5-HT2B one (Homo sapiens, UniProt P28223); conditions: in words; Life Sci. 73, 193-207; cited from earlier work
5-HT2A receptor compared to the 5-HT2B one, sequence (P28223 whole entry): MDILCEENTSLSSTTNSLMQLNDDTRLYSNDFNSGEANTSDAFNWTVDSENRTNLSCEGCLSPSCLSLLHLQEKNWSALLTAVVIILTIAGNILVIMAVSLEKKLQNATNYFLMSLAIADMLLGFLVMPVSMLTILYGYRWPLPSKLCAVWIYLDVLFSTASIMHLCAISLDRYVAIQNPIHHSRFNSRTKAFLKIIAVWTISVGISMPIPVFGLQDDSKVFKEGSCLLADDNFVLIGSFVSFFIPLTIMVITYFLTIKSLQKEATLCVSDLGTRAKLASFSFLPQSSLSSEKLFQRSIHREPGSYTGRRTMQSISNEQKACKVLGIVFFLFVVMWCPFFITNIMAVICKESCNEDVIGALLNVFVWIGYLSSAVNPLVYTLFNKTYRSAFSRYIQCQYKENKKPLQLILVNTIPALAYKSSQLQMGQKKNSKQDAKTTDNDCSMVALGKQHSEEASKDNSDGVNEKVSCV

C[C@H](N)Cc1cccc(C(F)(F)F)c1 [NdF, nordexfenfluramine]
Body weight ([1]; Week 0 (baseline)): 25.10 g | Heart rate ([1]; Week 0 (baseline)): 539.7 beats/min | Systolic blood pressure ([1]; Week 0 (baseline)): 100.2 mmHg | Body weight ([1]; Week 1): 26.20 g | Food intake: estimation of the food intake for each mouse per week ([1]; Week 1): 32.83 g | Heart rate ([1]; Week 1): 579.5 beats/min | Systolic blood pressure ([1]; Week 1): 108.9 mmHg | Water intake: estimation of the water intake per cage per day ([1]; Week 1): 31.43 g | Food intake: estimation of the food intake for each mouse per week ([1]; Week 2): 30.71 g | Heart rate ([1]; Week 2): 571.8 beats/min | Systolic blood pressure ([1]; Week 2): 97.5 mmHg | Water intake: estimation of the water intake per cage per day ([1]; Week 2): 31.86 g | Body weight ([1]; Week 3): 27.20 g | Food intake: estimation of the food intake for each mouse per week ([1]; Week 3): 35.13 g | Heart rate ([1]; Week 3): 498.0 beats/min | Water intake: estimation of the water intake per cage per day ([1]; Week 3): 32.14 g | Body weight ([1]; Week 4): 26.50 g | Food intake: estimation of the food intake for each mouse per week ([1]; Week 4): 26.38 g | Heart rate ([1]; Week 4): 559.3 beats/min | Systolic blood pressure ([1]; Week 4): 99.5 mmHg | Water intake: estimation of the water intake per cage per day ([1]; Week 4): 33.07 g | Effect on total blood (plasma) concentration of serotonin (5-HT) ([2]; in words): increases | 5-HIAA ([2]; urine, day 28, mean, NdF 1 mg/kg/day, sarpogrelate 2 mg/kg/day): 10.62 mg/L | 5-HT ([2]; whole blood, day 28, mean, NdF 1 mg/kg/day, sarpogrelate 2 mg/kg/day): 2259.78 µg/L | Mitral valve thickness (mean) (mitral valve leaflet; day 28, mean of proximal, medial and distal parts, NdF 1 mg/kg/day, sarpogrelate 2 mg/kg/day): 67.467 μm | Endothelial cellularity (mean) (mitral valve leaflet; day 28, mitral valve): 9.988 cells/0.01 mm^2 | Interstitial cellularity (mean) (mitral valve leaflet; day 28, mitral valve): 22.011 cells/0.01 mm^2 | Effect on mitral valve thickness (mitral valve leaflet; in words): massive increase | Effect on valve interstitial cellularity (mitral valve leaflet; in words): increase

COc1cccc(CCc2ccccc2OCC(CN(C)C)OC(=O)CCC(=O)O)c1 (centres unmarked) [sarpogrelate]
Receptor subtype preference (5-HT2A vs 5-HT2B) [3]: preferably blocking the 5-HT2A receptor | Effect on total blood (plasma) concentration of serotonin (5-HT) ([2]; in words): reduces | Effect on urinary 5-HIAA ([2]; in words): reduces | Effect on interstitial migration of endothelial cells (mitral valve leaflet; in words): reduces | Effect on mitral valve thickness (mitral valve leaflet; in words): nearly completely prevented; also recorded: markedly reduces | Effect on valve interstitial cellularity (mitral valve leaflet; in words): prevents the increase
